Measurements reported in US20030065039A1, “Biologically active 1,3-bis-aromatic-prop-2-en-1-ones, 1,3-bis-aromatic-propan-1-ones, and 1,3-bis-aromatic-prop-2-yn-1-ones” (Statens Serum Institute, priority 1997, published 2003).
≈ marks a conversion by molar mass, not a printed value. Like-named read-outs stand apart in the source and are kept apart here. Blank lines part the entries; values can stand above or below the compound they belong to.

What was measured:
Helicobacter pylori = experiment: Helicobacter species Assay (agar plate, MIC); format: cell-based; settings: for MIC: 20 strains of H. pylori, agar plate, 72 hours; for No. strains inhibited/No. strains tested: at the MIC of the same line
Procedure: (§1) 20 strains of Helicobacter pylori were used in an agar plate assay. The compounds were incorporated in the agar plates at different concentrations as described in the examples and were then inoculated with different strains of Helicobacter pylori followed by incubation in a microaerophilic atmosphere at 37° C. for 72 hours. The number of colony-forming units (CFU) were counted after the incubation period. The MIC values were determined as the minimal concentration required to inhibit growth of the bacteria.
(§2) Stock solutions were made at a concentration of 1 mg/ml by dissolving 1 mg of each compound in 100 μl DMSO (dimethylsulfoxide) followed by addition of 900 μl of heat-inactivated fetal claf serum (HFCS). These stock solutions were diluted with HFCS to make solutions having the following concentrations: 320 μg/ml, 160 μg/ml, 80 μg/ml, 40 μg/ml and 20 μg/ml. Dilution rows were made with 3 ml aliquots in vials containing the compounds in the following final test concentrations: 16 μg/ml, 8 μg/ml, 4 μg/ml, 2 μg/ml and 1 μg/ml. As control was used DMSO-HFCS containing an amount of DMSO equal to the amount of test compound in the solution with 320 μg/ml compound.
as §1, with “Bacteria: 20” for “20”, “concentrations” for “concentrations as described in the examples”, “and then they” for “and”, “were” for “were then”, “incubation at” for “incubation in a”, “C. in” for “C. for”
as §2, with “concentrations: 2560 μg/ml, 1280 μg/ml, 640 μg/ml,” for “concentrations:”, “160 µg/ml and” for “160 μg/ml,”, “80” for “80 μg/ml, 40 μg/ml and 20”, “concentrations: 128 μg/ml, 64 μg/ml, 32 μg/ml, 12” for “concentrations: 16”, “8” for “8 μg/ml, 4 μg/ml, 2”, “and 4” for “and 1”
Bacteria: 20 strains of Helicobacter pylori were used in an agar plate assay. The same method as described above under Experiment A was employed and MIC values were determined.

TNF-α [1] = experiment: Intracellular TNF-α in human mononuclear cells (flow cytometry); format: cell-based; settings: for % TNFα- producing cells: DMSO 10.1
Procedure: (§3) [table] Incubation condition: Cells and mitogen added at the same time and the compound solution added immediately after in polypropylene tubes and incubated at 37° C. in CO2 incubator overnight. The following day the cells and the supernatant were harvested for TNF-α determination. Incubation condition: Cells and mitogen added at the same time and the compound solution added immediately after in polypropylene tubes and incubated at 37° C. in CO2 incubator overnight. The following day the cells and the supernatant were harvested for TNF-α determination.

Plasmodium falciparum = Plasmodium falciparum Assay; format: cell-based; settings: 3-H-hypoxanthine incorporation, 48 hours, read-out: Plasmodium IC50 ± SD
How it was run: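 Parasitized erythrocytes (~1% parasitemia, 5×10^8/ml) cultured 48 h in RPMI with test compound, with 3H-hypoxanthine added for the last 24 h. Growth inhibition read as 3H-hypoxanthine incorporation into parasite DNA by liquid scintillation; uninfected and untreated infected cultures run in parallel.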

TNF-α [2] = experiment: Extracellular TNF-α of human mononuclear cells (supernatant); format: cell-based; settings: for inhibition at 3.125 µg/mL: compound 3.125 μg/ml; for inhibition at 6.25 µg/mL: compound 6.25 μg/ml; for inhibition at 12.5 µg/mL: compound 12.5 μg/ml
Procedure: as §3, with “Incubation” for “[table] Incubation”

TNF-α [3] = experiment: TNF-α in lysate of stimulated human mononuclear cells (ELISA); format: cell-based; settings: cells preincubated with compound, stimulated with SPAG or LPS
Procedure: Therefore, experiments were performed to examine the effect of Licochalcone A and SBC-35ma on secretion of TNF-α from the stimulated cells. These experiments included detection of the cytokines in the cell lysate by ELISA and staining of the intracellular cytokines by using monoclonal antibodies against these cytokines and cytokine receptors.

[4] = Preliminary 14 days oral toxicity study in rats; format: in vivo; settings: highest dose level 1000 mg/kg/day
Procedure: A preliminary 14 days oral toxicity study in rats was carried out with 6 compounds. Observations included clinical signs, body weights, food intake, haematology, clinical chemistry and macroscopic pathology.

[5] = Helicobacter pylori, read-out: MIC

MIC (Helicobacter pylori; [5]): 16 µg/mL (≈ 51.1 µM)
Compound: COc1cc(/C=C/C(=O)c2ccc([N+](=O)[O-])cc2)cc(OC)c1 [PH105, 4′-nitro-3,5-dimethoxychalcone]
strains of Helicobacter pylori inhibited (Helicobacter pylori; at a concentration of 16 μg/ml, 20 strains): 12 out of 20
No. strains inhibited/No. strains tested (Helicobacter pylori): 12/20

IC50 (Plasmodium falciparum; Plasmodium falciparum): 15 µM
MIC (Helicobacter pylori; [5]): 64 µg/mL (≈ 183 µM)
Compound: COc1cc(/C=C/C(=O)c2ccc(C3CCCCC3)cc2)cc(OC)c1 [PH104, 3,5-dimethoxy-4′-cyclohexylchalcone]
% TNF-α producing cells (TNF-α [1]; 1b Experiment 1, LPS 0.5 μg/ml, compound 12.5 μg/ml, DMSO 13.8): 2.4%
% TNF-α producing cells (TNF-α [1]; 1b Experiment 1, LPS 0.5 μg/ml, compound 25.0 μg/ml, DMSO 13.8): 1.4%
% TNF-α producing cells (TNF-α [1]; 1b Experiment 2, LPS 1 μg/ml, compound 3.125 μg/ml, DMSO 4.0): 2.4%
% TNF-α producing cells (TNF-α [1]; 1b Experiment 2, LPS 1 μg/ml, compound 6.25 μg/ml, DMSO 4.0): 1.0%
% TNF-α producing cells (TNF-α [1]; 1b Experiment 2, LPS 1 μg/ml, compound 12.5 μg/ml, DMSO 4.0): 1.7%
% TNFα- producing cells (TNF-α [1]; 1b Experiment 3, LPS 1 μg/ml, compound 3.125 μg/ml): 2.9%
% TNFα- producing cells (TNF-α [1]; 1b Experiment 3, LPS 1 μg/ml, compound 6.25 μg/ml): 1.1%
% TNFα- producing cells (TNF-α [1]; 1b Experiment 3, LPS 1 μg/ml, compound 12.5 μg/ml): 1.2%
% TNF-α producing cells (TNF-α [1]; 1b Experiment 4, LPS 1 μg/ml, compound 3.125 μg/ml, DMSO 14.6): 3.0%
% TNF-α producing cells (TNF-α [1]; 1b Experiment 4, LPS 1 μg/ml, compound 6.25 μg/ml, DMSO 14.6): 0.8%
% TNF-α producing cells (TNF-α [1]; 1b Experiment 4, LPS 1 μg/ml, compound 12.5 μg/ml, DMSO 14.6): 1.0%
inhibition at 12.5 µg/mL (TNF-α [1]; Homo sapiens, 1b Experiment 1, LPS 0.5 μg/ml, compound 12.5 μg/ml, read-out: % inhibition): 83%
inhibition at 25 µg/mL (TNF-α [1]; Homo sapiens, 1b Experiment 1, LPS 0.5 μg/ml, compound 25.0 μg/ml): 90%
inhibition at 3.125 µg/mL (TNF-α [1]; Homo sapiens, 1b Experiment 2, LPS 1 μg/ml, compound 3.125 μg/ml): 40%
inhibition at 6.25 µg/mL (TNF-α [1]; Homo sapiens, 1b Experiment 2, LPS 1 μg/ml, compound 6.25 μg/ml, read-out: Intracellular % inhibition): 75%
inhibition at 12.5 µg/mL (TNF-α [1]; Homo sapiens, 1b Experiment 2, LPS 1 μg/ml, compound 12.5 μg/ml, read-out: Intracellular % inhibition): 58%
inhibition at 3.125 µg/mL (TNF-α [1]; Homo sapiens, 1b Experiment 3, LPS 1 μg/ml, compound 3.125 μg/ml): 71%
inhibition at 6.25 µg/mL (TNF-α [1]; Homo sapiens, 1b Experiment 3, LPS 1 μg/ml, compound 6.25 μg/ml, read-out: Intracellular % inhibition): 89%
inhibition at 12.5 µg/mL (TNF-α [1]; Homo sapiens, 1b Experiment 3, LPS 1 μg/ml, compound 12.5 μg/ml, read-out: Intracellular % inhibition): 88%
inhibition at 3.125 µg/mL (TNF-α [1]; Homo sapiens, 1b Experiment 4, LPS 1 μg/ml, compound 3.125 μg/ml): 79%
inhibition at 6.25 µg/mL (TNF-α [1]; Homo sapiens, 1b Experiment 4, LPS 1 μg/ml, compound 6.25 μg/ml, read-out: Intracellular % inhibition): 95%
inhibition at 12.5 µg/mL (TNF-α [1]; Homo sapiens, 1b Experiment 4, LPS 1 μg/ml, compound 12.5 μg/ml, read-out: Intracellular % inhibition): 93%
inhibition at 3.125 µg/mL (TNF-α [2]; 1b Experiment 2, LPS 1 μg/ml): 82%
inhibition at 6.25 µg/mL (TNF-α [2]; 1b Experiment 2, LPS 1 μg/ml): 90%
inhibition at 12.5 µg/mL (TNF-α [2]; 1b Experiment 2, LPS 1 μg/ml): 93%
inhibition at 3.125 µg/mL (TNF-α [2]; 1b Experiment 3, LPS 1 μg/ml): 54%
inhibition at 6.25 µg/mL (TNF-α [2]; 1b Experiment 3, LPS 1 μg/ml): 70%
inhibition at 12.5 µg/mL (TNF-α [2]; 1b Experiment 3, LPS 1 μg/ml): 76%
inhibition at 3.125 µg/mL (TNF-α [2]; 1b Experiment 4, LPS 1 μg/ml): 0%
inhibition at 6.25 µg/mL (TNF-α [2]; 1b Experiment 4, LPS 1 μg/ml): 78%
inhibition at 12.5 µg/mL (TNF-α [2]; 1b Experiment 4, LPS 1 μg/ml): 86%
growth of the strains of H. pylori (FIGS. 1 and 2) (Helicobacter pylori): inhibited the growth of all the strains
No. strains inhibited/No. strains tested (Helicobacter pylori): 15/20

Compound: C=CC(C)(C)c1cc(/C=C/C(=O)c2ccc(O)cc2)c(OC)cc1O [Licochalcone A]
intracellular TNF-α in the cell lysate (ELISA) (TNF-α [3]): no intracellular TNF-α present
toxic effects [4]: No toxic effects
IC50 (Plasmodium falciparum): 5.6 µM
growth of the strains of H. pylori (FIGS. 1 and 2) (Helicobacter pylori): inhibited the growth of all the strains
strains that gave a MIC value equal to or less than 16 μg/ml (Helicobacter pylori; 20 strains): 20 out of 20
MIC (Helicobacter pylori): 16 µg/mL (≈ 47.3 µM)
No. strains inhibited/No. strains tested (Helicobacter pylori): 20/20
